Reference: US20050043381A1, “Aminopyrazole compounds” (AGOURON PHARMACEUTICALS, INC., priority 2003, published 2005)

What was measured:
[1] = target: T1, full-length human CHK1 (FL-CHK1) (Homo sapiens, UniProt O14757); experiment: FL-CHK1 assay (coupled spectrophotometric, Syntide-2); type: biochemical; conditions: FL-CHK1, 0.15 mM ATP
T1 construct: C-terminally His-tagged full-length human CHK1 (FL-CHK1); 6xHis (C); made in house
T1 sequence (O14757 1-476): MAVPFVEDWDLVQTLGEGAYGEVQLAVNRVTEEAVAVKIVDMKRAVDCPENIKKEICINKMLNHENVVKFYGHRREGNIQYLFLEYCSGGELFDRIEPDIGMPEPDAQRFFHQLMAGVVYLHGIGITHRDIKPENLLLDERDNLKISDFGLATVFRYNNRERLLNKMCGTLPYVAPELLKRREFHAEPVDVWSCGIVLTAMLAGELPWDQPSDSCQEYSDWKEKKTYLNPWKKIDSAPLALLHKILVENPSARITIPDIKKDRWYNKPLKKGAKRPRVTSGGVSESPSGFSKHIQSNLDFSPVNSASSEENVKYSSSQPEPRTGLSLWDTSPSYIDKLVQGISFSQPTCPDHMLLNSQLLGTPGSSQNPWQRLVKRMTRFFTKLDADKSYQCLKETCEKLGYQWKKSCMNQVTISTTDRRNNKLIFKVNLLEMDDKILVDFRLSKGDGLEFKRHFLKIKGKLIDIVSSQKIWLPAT
Text: C-terminally His-tagged full-length human CHK1 (FL-CHK1) was expressed using the baculovirus/insect cell system. It contains 6 histidine residues (6 x His-tag) at the C-terminus of the 476 amino acid human CHK1. The protein was purified by conventional chromatographic techniques.
The production of ADP from ATP that accompanies phosphoryl transfer to the synthetic substrate peptide Syntide-2 (PLARTLSVAGLPGKK) was coupled to oxidation of NADH using phosphoenolpyruvate (PEP) through the actions of pyruvate kinase (PK) and lactic dehydrogenase (LDH). The oxidation of NADH was monitored by following the decrease of absorbance at 340 nm (ε340=6.22 cm^−1 mM^−1) using a HP8452 spectrophotometer. Typical reaction solutions contained: […] PEP; 0.15 mM NADH; 28 units of LDH/mL; 16 units of PK/mL; 3 mM DTT; 0.125 mM Syntide-2; 0.15 mM ATP; 25 mM MgCl2 in 50 mM TRIS, pH 7.5; and 400 mM NaCl. Assays were initiated with 10 nM of FL-CHK1. Ki values were determined by measuring initial enzyme activity in the presence of varying concentrations of test compounds. The data were analyzed using Enzyme Kinetic and Kaleidagraph software. […]

CA-46 (lymphoma) cells = experiment: Whole cell checkpoint abrogation assay (CHK1 Mitotic Index ELISA); type: cell-based; conditions: for EC50: concentration causing 50% abrogation of the checkpoint, camptothecin + Nocodazole
Experimental: To examine the in vitro effects of CHK1 inhibitory compounds, an ELISA assay can be designed to monitor the abrogation of DNA damage-induced checkpoint control. The assay can be based on the trapping and detection of mitotic cells following DNA damage-induced arrest.
CA-46 (lymphoma) cells can be treated with a DNA damaging agent, such as camptothecin (Sigma), at 50 nM for 8 hours to induce DNA damage. The control compound or CHK1 inhibitor can be then added at increasing concentrations with Nocodazole (Sigma) at 0.1 μg/ml and plates can be incubated for 16 hours. Control cells, where only CHK1 inhibitors can be added, can be prepared as well to assure that the inhibitors alone have no effect on the cell cycle. The cells can be then harvested, washed with PBS, and crude acid extraction can be performed. Pellets can be resuspended in 80 μl of Acid Extraction Buffer (10 mM Hepes pH 7.9, 1.5 mM MgCl2, 10 mM KCl, 0.5 mM DTT, 1.5 mM PMSF, 0.4N sulfuric acid), vortexed briefly, and incubated for 30 minutes on ice. Samples can be then centrifuged and 75 μl of the supernatant can be transferred to a 96 well flat-bottom plate (VWR 3596). Next 15 μl Neutralizing Cocktail (# of samples×(10 μl 10N NaOH+5 μl 1M Tris Base) can be added to each well, and after mixing, 5 μl of this can be transferred to another 96 well plate with 100 μl 50 mM Tris base (pH 9.6) in each well. Samples can be dried overnight. The wells can be then washed with 200 μl ELISA wash buffer (PBS with 20 mM Tris pH 7.5, 0.05% Tween 20) 5 times and blocked with 200 μl blocking buffer (PBS with 20 mM Tris pH 7.5, 0.05% Tween 20, 3.5% Dry milk, 1.5% BSA. pH to 7.5 after preparation) for 1 hour at room temperature. Following wash and block, anti-phospho Histone H3 antibodies (Upstate USA, Inc., rabbit polyclonal) can be added at 0.5 μg/ml in block (100 μl per well) and incubated for 2 hours at room temperature. Wells can be washed again to remove unbound primary antibody and 100 μl alkaline phosphatase conjugated secondary antibodies at 0.3 mg/ml (Pierce, goat anti-rabbit IgG ([…]+L)) in block can be added for 1 hour at room temp. Wells can be washed 5 times to remove unbound secondary antibody, and washed again 3 times with PBS alone to remove detergents. Then 100 μl alkaline phosphatase substrate (Pierce 1-Step pNPP) can be added to wells. Plates can be protected from light and incubated at room temp for 1 hour. The OD can be read on Molecular Devices Vmax Kinetic Microplate Reader at 405 nm. The ratio of the OD (optical density) of a compound treated sample to the Nocodazole only treated sample (about 100% mitotic or abrogation) can be expressed in a percentage, and quantifies the percent abrogation of the checkpoint. The concentration at which a compound causes 50% abrogation of the checkpoint can be called the EC50. The raw OD values can be graphed in Excel, and an EC50 value can be generated using Kaleidograph software. Strong signal results from Nocodazole only treated cells, and equals 100% mitosis in this assay. Camptothecin+Nocodazole treated control samples have low signal, signifying no mitosis and therefore, no checkpoint abrogation. When potent CHK1 inhibitors are added to Camptothecin treated cells with Nocodazole, a high signal can be generated (generally in a dose dependent manner), due to the checkpoint abrogation activity caused by the combination treatment.

In the case of `Oc1ccc(-c2ccc(-c3cc(Nc4ncccn4)n[nH]3)cc2)c(O)c1` [Example 11, N-[3-(2′,4′-dihydoxy-1,1′-biphenyl-4-yl)-1H-pyrazol-5-yl]pyrimidin-2-amine], the Ki [1] is reported as 1 to 10 nM.

In the case of `CCC(C)NCc1ccc(Nc2cc(-c3ccc(-c4ccc(O)cc4O)cc3)[nH]n2)cc1` (stereo not shown) [Example 22], the EC50 (CA-46 (lymphoma) cells) is reported as 60 nM.

`CN(C)Cc1ccc(Nc2cc(-c3ccc(-c4ccc(O)cc4O)cc3)[nH]n2)cn1` [Example 15, 4′-[5-({6-[(dimethylamino)methyl]pyridin-3-yl}amino)-1H-pyrazol-3-yl]-1,1′-biphenyl-2,4-diol] was tested, and the EC50 (CA-46 (lymphoma) cells) was 380 nM and the Ki [1] was 1 to 10 nM.

`Oc1cc(O)c(-c2ccc(-c3cc(Nc4ccc(CNC5CC5)cc4)n[nH]3)cc2)c(Cl)c1` [Example 8, 4′-[5-(4-Cyclopropylaminomethyl-phenylamino)-2H-pyrazol-3-yl]-biphenyl-6-chloro-2,4-diol acetate] gave an EC50 (CA-46 (lymphoma) cells) of 150 nM.

With `Cc1cc(O)cc(O)c1-c1ccc(-c2cc(Nc3ccc(CNC(C)C)cc3)n[nH]2)cc1` [Example 7] the EC50 (CA-46 (lymphoma) cells) was 380 nM.

Compound `CC(C)NCc1ccc(Nc2cc(-c3ccc(-c4ccc(O)cc4O)cc3)n[nH]2)cn1` [Example 25, 4′-[5-({6-[(isopropylamino)methyl]pyridin-3-yl}amino)-1H-pyrazol-3-yl]-1,1′-biphenyl-2,4-diol] has an EC50 (CA-46 (lymphoma) cells) of 560 nM.

With `Oc1ccc(-c2ccc(-c3cc(Nc4ccc(CNC5CC5)cc4)n[nH]3)cc2)c(O)c1` [Example 4, 4′-[5-(4-Cyclopropylaminomethyl-phenylamino)-2H-pyrazol-3-yl]-biphenyl-2,4-diol acetate] the EC50 (CA-46 (lymphoma) cells) was 60 nM.

In the case of `Oc1ccc(-c2ccc(-c3cc(Nc4ccccn4)[nH]n3)cc2)c(O)c1` [Example 17, N-[5-(2′,4′-Dihydroxy-1,1′-biphenyl-4-yl)-1H-pyrazol-3-yl]pyridin-2-amine], the “percent abrogation of the checkpoint” value (CA-46 (lymphoma) cells; @ 0.5 μM) is reported as 16% @ 0.5 μM.

In the case of `OCc1ccc(Nc2cc(-c3ccc(-c4ccc(O)cc4O)cc3)[nH]n2)cn1` [Example 12, 4′-[5-(6-Hydroxymethyl-pyridin-3-ylamino)-2H-pyrazol-3-yl]-biphenyl-2,4-diol], the “percent abrogation of the checkpoint” value (CA-46 (lymphoma) cells; @ 0.5 μM) is reported as 5% @ 0.5 μM.

`N#Cc1cccc(Nc2cc(-c3ccc(-c4ccc(O)cc4O)cc3)n[nH]2)c1` [Example 1, 3-{[3-(2′,4′-Dihydroxy-1,1′-biphenyl-4-yl)-1H-pyrazol-5-yl]amino}benzonitrile] was tested, and the “percent abrogation of the checkpoint” value (CA-46 (lymphoma) cells; @ 0.5 μM) was 7% @ 0.5 μM and the Ki [1] was 1 to 10 nM.

For `CNC(=S)c1ccc(Nc2cc(-c3ccc(-c4ccc(O)cc4O)cc3)n[nH]2)cn1` [Example 16, 5-[5-(2′,4′-Dihydroxy-biphenyl-4-yl)-2H-Pyrazol-3-ylamino]-pyridine-2-carbothioic acid methylamide], the “percent abrogation of the checkpoint” value (CA-46 (lymphoma) cells; @ 0.5 μM) was 10% @ 0.5 μM and the Ki [1] was 1 to 10 nM.

`Oc1ccc(-c2ccc(-c3cc(Nc4ccc(CNC5CCCC5)nc4)n[nH]3)cc2)c(O)c1` [Example 14, 4′-[5-({6-[(cyclopentylamino)methyl]pyridin-3-yl}amino)-1H-pyrazol-3-yl]-1,1′-biphenyl-2,4-diol] was tested, and the EC50 (CA-46 (lymphoma) cells) was 160 nM and the Ki [1] was 1 to 10 nM.

With `Oc1ccc(-c2ccc(-c3cc(Nc4ccccc4)n[nH]3)cc2)c(O)c1` [Example 21, 4′-(3-anilino-1H-pyrazol-5-yl)-1,1′-biphenyl-2,4-diol] the EC50 (CA-46 (lymphoma) cells) was 500 nM.

In the case of `Oc1ccc(-c2ccc(-c3cc(Nc4cncs4)[nH]n3)cc2)c(O)c1` [Example 20, 4′-[5-(1,3-thiazol-5-ylamino)-1H-pyrazol-3-yl]-1,1′-biphenyl-2,4-diol], the “percent abrogation of the checkpoint” value (CA-46 (lymphoma) cells; @ 0.5 μM) is reported as 10% @ 0.5 μM.

With `OCc1cc(Nc2cc(-c3ccc(-c4ccc(O)cc4O)cc3)[nH]n2)ccn1` [Example 13, 4′-[5-(2-Hydroxymethyl-pyridin-4-ylamino)-2H-pyrazol-3-yl]-biphenyl-2,4-diol acetate] the “percent abrogation of the checkpoint” value (CA-46 (lymphoma) cells; @ 0.5 μM) was 0% @ 0.5 μM.

`CCNCc1ccc(Nc2cc(-c3ccc(-c4ccc(O)cc4O)cc3)[nH]n2)cn1` [Example 26, -[5-({6-[(ethylamino)methyl]pyridin-3-yl}amino)-1H-pyrazol-3-yl]-1,1′-biphenyl-2,4-diol] showed an EC50 (CA-46 (lymphoma) cells) of 560 nM.

With `Oc1ccc(-c2ccc(-c3cc(Nc4ccncc4)[nH]n3)cc2)c(O)c1` [Example 19, 4′-[5-(pyridin-4-ylamino)-1H-pyrazol-3-yl]-1,1′-biphenyl-2,4-diol] the “percent abrogation of the checkpoint” value (CA-46 (lymphoma) cells; @ 0.5 μM) was 14% @ 0.5 μM and the Ki [1] was 1 to 10 nM.

For `Oc1ccc(-c2ccc(-c3cc(Nc4ccc(CNCC5CC5)cc4)n[nH]3)cc2)c(O)c1` [Example 10, 4′-[5-(4-Cyclopropylmethylaminomethyl-phenylamino)-2H-pyrazol-3-yl-]-biphenyl-2,4-diol acetate], the EC50 (CA-46 (lymphoma) cells) was 75 nM.

In the case of `N#Cc1ccc(Nc2cc(-c3ccc(-c4ccc(O)cc4O)cc3)n[nH]2)cc1` [Example 2, 4-{[3-(2′,4′-Dihydroxy-1,1′-biphenyl-4-yl)-1H-pyrazol-5-yl]amino}benzonitrile], the “percent abrogation of the checkpoint” value (CA-46 (lymphoma) cells; @ 1 μM) is reported as 1% @ 1 μM and the Ki [1] is reported as 1 to 10 nM.

In the case of `Oc1cc(O)c(-c2ccc(-c3cc(Nc4ccc(CNC5CC5)cc4)n[nH]3)cc2)c(F)c1` [Example 9, 4′-[5-({4-[(cyclopropylamino)methyl]phenyl}amino)-1H-pyrazol-3-yl]-6-fluoro-1,1′-biphenyl-2,4-diol], the EC50 (CA-46 (lymphoma) cells) is reported as 88 nM and the Ki [1] is reported as 1 to 10 nM.

Compound `Oc1ccc(-c2ccc(-c3cc(Nc4ccc(CNCC5CC5)nc4)[nH]n3)cc2)c(O)c1` [Example 23, 4′-{5-[(6-{[(cyclopropylmethyl)amino]methyl}pyridin-3-yl)amino]-1H-pyrazol-3-yl}-1,1′-biphenyl-2,4-diol] has an EC50 (CA-46 (lymphoma) cells) of 165 nM and a Ki [1] of 1 to 10 nM.

Compound `Oc1ccc(-c2ccc(-c3cc(Nc4cccc(CNC5CC5)c4)n[nH]3)cc2)c(O)c1` [Example 3, 4′-[5-(3-Cyclopropylaminomethyl-phenylamino)-2H-pyrazol-3-yl]-biphenyl-2,4-diol acetate] has an EC50 (CA-46 (lymphoma) cells) of 900 nM.

`Oc1ccc(-c2ccc(-c3cc(Nc4cccnc4)[nH]n3)cc2)c(O)c1` [Example 18, N-[5-(2′,4′-Dihydroxy-1,1′-biphenyl-4-yl)-1H-pyrazol-3-yl]pyridin-3-amine] was tested, and the EC50 (CA-46 (lymphoma) cells) was 540 nM.
